The nature of this data set: Average particle diameter (D50) of powder. In kind it is physicochemical. Conditions: powder as used for coating. The text has this:
The term “an average particle diameter” used herein refers to a particle diameter of 50% cumulative percentage (D50) on volume-based measurement of powder particle, which can be measured on the mass with a commercially available laser diffraction type particle size distribution measuring device and sonic wave vibration type sieving analyzer.

For `C[C@H]1COc2c(N3CCN(C)CC3)c(F)cc3c(=O)c(C(=O)O)cn1c23.C[C@H]1COc2c(N3CCN(C)CC3)c(F)cc3c(=O)c(C(=O)O)cn1c23.O` [Compound A, levofloxacin 0.5 hydrate], the average particle diameter was determined as 3.38 μm.

Values taken from patent publication US20210196635A1, “DRUG-CONTAINING PARTICLE” (TOWA PHARMACEUTICAL CO., LTD., priority 2018, published 2021).
